Data from PMC6981581, “N-(2-Arylmethylthio-4-Chloro-5-Methylbenzenesulfonyl)amide Derivatives as Potential Antimicrobial Agents—Synthesis and Biological Studies” (International Journal of Molecular Sciences, 2019).
In brackets after ≈: the same amount, converted by molar mass. Several values for one entry are separate records, joined by “and”; a condition that tells them apart may be missing. Identical values can stand only once. Like-named read-outs stand apart in the source and are kept apart here.

What was measured:
Assay type in all cases: cell-based
MCF-7 (breast cancer) = test: MTT cell viability assay; settings: Homo sapiens, MCF7, 72 h incubation, mean ± SD
Method: (§1) Analysis was performed using the MTT test and 72 h of incubation.
(§2) All chemicals were obtained from Sigma-Aldrich (St. Louis, MO, USA). The MCF-7 and HeLa cell lines were purchased from Cell Lines Services (Eppelheim, Germany), the HCT-116 cell line was purchased from ATCC (ATCC-No: CCL-247). Cells were cultured in Dulbecco’s modified Eagle’s medium (DMEM) supplemented with 10% fetal bovine serum, 2 mM glutamine, 100 units/mL penicillin, and 100 μg/mL streptomycin. Cultures were held in an incubator (Heraceus, HeraCell) in a humidified atmosphere with 5% CO2 at 37 °C.
(§3) Cell viability was evaluated using the MTT (3-(4,5-dimethylthiazol-2-yl)-2,5-diphenyltetrazolium bromide) assay. Stock solutions of the studied compounds were obtained in 100% DMSO. […] Cells at a density of 5 × 10^3 cells/well, seeded in 96-well plates, were treated for 72 h with the tested compounds in the concentration range 1–100 μM (1, 10, 25, 50 and 100 μM). After treatment, cells were incubated for 2 h with MTT (0.5 mg/mL) at 37 °C. Cells were lysed with DMSO and the absorbance of the formazan solution was measured at 550 nm with a plate reader (1420 multilabel counter, Victor, Jügesheim, Germany). Values are expressed as the mean ± SD of at least three independent experiments conducted in triplicate.

HCT-116 (colon cancer) = test: MTT cell viability assay; settings: Homo sapiens, 72 h incubation, mean ± SD
Method: as §1, §2, §3

HeLa (cervical cancer) = test: MTT cell viability assay; settings: Homo sapiens, 72 h incubation, mean ± SD
Method: as §1, §2, §3

[1] = tested on: HaCaT cell line (human keratinocyte); test: MTT cell viability assay; settings: MTT assay, 72 h incubation, mean ± SD, read-out: IC50 HaCaT
[2] = tested on: Pseudomonas aeruginosa ATCC 15442; test: Broth dilution MIC/MBC, reference strain; settings: for MBC/MIC: P. a. ATCC 15442; for MBC / MIC: Pseudomonas aeruginosa, ATCC15442
Method: (§4) The tests were carried out using a serial dilution method, allowing the determination of MIC (minimal concentration inhibiting bacterial growth), MBC (minimal bactericidal concentration), and MFC (minimal fungicidal concentration) values.
(§5) Antimicrobial activity was tested using the following reference strains: Staphylococcus aureus ATCC 6538 (MSSA), Staphylococcus aureus ATCC 43300 (MRSA), Staphylococcus epidermidis PCM 2118, Escherichia coli ATCC 11229, Pseudomonas aeruginosa ATCC 15442, Proteus vulgaris NCTC 4635, Enterococcus faecalis ATCC 11420, and Candida albicans ATCC 10231.
(§6) A broth dilution method was used to determine minimal inhibitory concentration (MIC) for tested compounds as recommended by Clinical Laboratory Standards Institute (CLSI) guidelines. Investigated compounds were diluted in Mueller Hinton Broth 2 (Sigma-Aldrich Co., St. Louis, MO, USA) in polypropylene 96-well plates and initial inoculum 5 × 10^5 cfu/mL were incubated at 37 °C for 18 h. MIC was taken as the lowest drug concentration at which an observable growth was inhibited. […] The loopful (10 µL) of the tested sample was transferred to Tryptic Soy Agar (TSA, Becton-Dickinson, Franklin Lakes, NJ, USA) and incubated at 37 °C for 48 h. […] Drug Solutions were made fresh on the day of the assay. All experiments were performed in triplicate.

[3] = tested on: Escherichia coli ATCC 11229; test: Broth dilution MIC/MBC, reference strain; settings: for MBC/MIC: E. c. ATCC 11229; for MBC / MIC: Escherichia coli, ATCC11229
Method: as §4, §5, §6

[4] = tested on: Staphylococcus aureus ATCC 6538 (MSSA); test: Broth dilution MIC/MBC, reference strain; settings: for MBC/MIC: S. a. ATCC 6538; for MBC / MIC: Staphylococcus aureus
Method: as §4, §5, §6

[5] = tested on: Staphylococcus epidermidis PCM 2118; test: Broth dilution MIC/MBC, reference strain; settings: for MBC/MIC: S. e. PCM 2118
Method: as §4, §5, §6

[6] = tested on: Enterococcus faecalis ATCC 11420; test: Broth dilution MIC/MBC, reference strain; settings: for MBC/MIC: E. f. ATCC 11420; for MBC / MIC: Enterococcus faecalis, ATCC11420
Method: as §4, §5, §6

[7] = tested on: Proteus vulgaris NCTC 4635; test: Broth dilution MIC/MBC, reference strain; settings: for MBC/MIC: P. v. NCTC 4635; for MBC / MIC: Proteus vulgaris, NCTC4635
Method: as §4, §5, §6

[8] = tested on: Staphylococcus aureus ATCC 43300 (MRSA); test: Broth dilution MIC/MBC, reference strain; settings: for MBC/MIC: S. a. ATCC 43300; for MBC / MIC: Staphylococcus aureus
Method: as §4, §5, §6

[9] = tested on: Candida albicans ATCC 10231; test: Broth dilution MIC/MFC, reference fungal strain; settings: for MFC/MIC: C. a. ATCC 10231; for MFC / MIC: Candida albicans, ATCC10231
Method: as §4, §5, §6

[10] = P. aeruginosa ATCC 15442, read-out: MBC
[11] = P. aeruginosa ATCC 15442, read-out: MIC
[12] = E. coli ATCC 11229, read-out: MBC
[13] = E. coli ATCC 11229, read-out: MIC
[14] = S. aureus ATCC 6538, read-out: MBC
[15] = S. aureus ATCC 6538, read-out: MIC
[16] = Staphylococcus epidermidis, PCM2118, S. epidermidis PCM 2118, read-out: MBC
[17] = Staphylococcus epidermidis, PCM2118, S. epidermidis PCM 2118, read-out: MIC
[18] = E. faecalis ATCC 11420, read-out: MBC
[19] = E. faecalis ATCC 11420, read-out: MIC
[20] = P. vulgaris NCTC 4635, read-out: MBC
[21] = P. vulgaris NCTC 4635, read-out: MIC
[22] = S. aureus ATCC 43300, read-out: MBC
[23] = S. aureus ATCC 43300, read-out: MIC
[24] = C. albicans ATCC 10231, read-out: MFC
[25] = C. albicans ATCC 10231, read-out: MIC

Cc1cc(S(=O)(=O)NC(=O)CCC2CCCCC2)c(SCc2ccc(C(F)(F)F)cc2)cc1Cl [Compound 9, N-[4-Chloro-5-methyl-2-(4-trifluoromethylbenzylthio)benzenesulfonyl]-3-cyclohexylpropanamide] was tested, and the IC50 (MCF-7 (breast cancer)) was 65 ± 3 µM, the IC50 (HCT-116 (colon cancer)) was 78 ± 2 µM and the IC50 (HeLa (cervical cancer)) was 90 ± 4 µM. For the same compound, the IC50 [1] was 40 µg/mL and 74 µM, the MBC/MIC [2] was >1 and the MBC [2, 10] was > 128 µg/mL. The MIC [2, 11] was 128 µg/mL (≈ 240 µM), the MBC/MIC [3] was >1 and the MBC [3, 12] was > 128 µg/mL. The MIC [3, 13] was 128 µg/mL (≈ 240 µM), the MBC/MIC [4] was >16 and the MBC [4, 14] was > 128 µg/mL. The MIC [4, 15] was 8 µg/mL (≈ 15 µM), the MBC/MIC [5] was 2 and the MBC ([5]; S. epidermidis PCM 2118) was 8 µg/mL (≈ 15 µM). The MBC [5, 16] was 4 to 16 µg/mL (≈ 7.49 to 30 µM), the MIC [5, 17] was 4 µg/mL (≈ 7.49 µM) and the MBC/MIC [6] was >16. The MBC [6, 18] was > 128 µg/mL, the MIC [6, 19] was 8 µg/mL (≈ 15 µM) and the MBC/MIC [7] was >2. For the same compound, the MBC [7, 20] was > 128 µg/mL, the MIC [7, 21] was 64 µg/mL (≈ 120 µM) and the MBC/MIC [8] was >32. The MBC [8, 22] was > 128 µg/mL, the MIC [8, 23] was 4 µg/mL (≈ 7.49 µM) and the MFC/MIC [9] was 2. For the same compound, the MFC [9, 24] was 128 µg/mL (≈ 240 µM) and the MIC [9, 25] was 64 µg/mL (≈ 120 µM).

Work on Cc1cc(S(=O)(=O)NC(=O)CCC2CCCCC2)c(SCc2ccc3ccccc3c2)cc1Cl [Compound 12, N-[4-Chloro-5-methyl-2-(naphthalen-2-ylmethylthio)benzenesulfonyl]-3-cyclohexylpropanamide] yielded an IC50 (MCF-7 (breast cancer)) of 94 ± 3 µM, an IC50 (HCT-116 (colon cancer)) of 77 ± 3 µM and an IC50 (HeLa (cervical cancer)) of 88 ± 3 µM. For the same compound, the IC50 [1] was 47 µg/mL and 92 µM, the MBC/MIC [2] was 1 and the MBC [2, 10] was 128 µg/mL (≈ 248 µM). The MIC [2, 11] was 128 µg/mL (≈ 248 µM), the MBC/MIC [3] was >1 and the MBC [3, 12] was > 128 µg/mL. The MIC [3, 13] was 128 µg/mL (≈ 248 µM), the MBC/MIC [4] was 16 and the MBC [4, 14] was 128 µg/mL (≈ 248 µM). The MIC [4, 15] was 8 µg/mL (≈ 15.5 µM), the MBC/MIC [5] was 32 and the MBC [5, 16] was 128 µg/mL (≈ 248 µM). The MIC [5, 17] was 4 µg/mL (≈ 7.75 µM), the MBC/MIC [6] was >4 and the MBC [6, 18] was > 128 µg/mL. The MIC [6, 19] was 32 µg/mL (≈ 62 µM), the MBC/MIC [7] was >1 and the MBC [7, 20] was > 128 µg/mL. For the same compound, the MIC [7, 21] was 128 µg/mL (≈ 248 µM), the MBC/MIC [8] was >16 and the MBC [8, 22] was > 128 µg/mL. For the same compound, the MIC [8, 23] was 8 µg/mL (≈ 15.5 µM), the MFC/MIC [9] was 2 and the MFC [9, 24] was 128 µg/mL (≈ 248 µM). For the same compound, the MIC [9, 25] was 64 µg/mL (≈ 124 µM).

With Cc1cc(S(=O)(=O)NC(=O)CCC2CCCCC2)c(SCc2ccccc2)cc1Cl [Compound 8, N-(2-Benzylthio-4-chloro-5-methylbenzenesulfonyl)-3-cyclohexylpropanamide] the MBC [2] was > 128 µg/mL, the MIC [2] was 128 µg/mL (≈ 275 µM) and the MBC [3] was > 128 µg/mL. For the same compound, the MIC [3] was 128 µg/mL (≈ 275 µM), the MBC [4] was > 128 µg/mL and the MIC [4] was 32 µg/mL (≈ 68.7 µM). For the same compound, the MIC ([5]; Staphylococcus epidermidis, PCM2118) was 8 µg/mL (≈ 17.2 µM), the MBC ([5]; Staphylococcus epidermidis, PCM2118, S. epidermidis PCM 2118) was 32 µg/mL (≈ 68.7 µM) and the MBC [6] was > 128 µg/mL. For the same compound, the MIC [6] was 128 µg/mL (≈ 275 µM), the MBC [7] was > 128 µg/mL and the MIC [7] was 64 µg/mL (≈ 137 µM). For the same compound, the MBC [8] was > 128 µg/mL, the MIC [8] was 16 µg/mL (≈ 34.3 µM) and the MFC [9] was 128 µg/mL (≈ 275 µM). It also gave an MIC [9] of 64 µg/mL (≈ 137 µM).

Work on Cc1cc(S(=O)(=O)NC(=O)CCC2CCCCC2)c(SCc2cccc3ccccc23)cc1Cl [Compound 11, N-[4-Chloro-5-methyl-2-(naphthalen-1-ylmethylthio)benzenesulfonyl]-3-cyclohexylpropanamide] yielded an IC50 (MCF-7 (breast cancer)) of 82 ± 4 µM, an IC50 (HCT-116 (colon cancer)) of 66 ± 1 µM and an IC50 (HeLa (cervical cancer)) of 42 ± 2 µM. For the same compound, the IC50 [1] was 42 µg/mL and 81 µM, the MBC/MIC [2] was >1 and the MBC [2, 10] was > 128 µg/mL. The MIC [2, 11] was 128 µg/mL (≈ 248 µM), the MBC/MIC [3] was >1 and the MBC [3, 12] was > 128 µg/mL. The MIC [3, 13] was 128 µg/mL (≈ 248 µM), the MBC/MIC [4] was >16 and the MBC [4, 14] was > 128 µg/mL. The MIC [4, 15] was 8 µg/mL (≈ 15.5 µM), the MBC/MIC [5] was >32 and the MBC [5, 16] was > 128 µg/mL. The MIC [5, 17] was 4 µg/mL (≈ 7.75 µM), the MBC/MIC [6] was >16 and the MBC [6, 18] was > 128 µg/mL. The MIC [6, 19] was 8 µg/mL (≈ 15.5 µM), the MBC/MIC [7] was >1 and the MBC [7, 20] was > 128 µg/mL. For the same compound, the MIC [7, 21] was > 128 µg/mL, the MBC/MIC [8] was >16 and the MBC [8, 22] was > 128 µg/mL. For the same compound, the MIC [8, 23] was 8 µg/mL (≈ 15.5 µM), the MFC/MIC [9] was 2 and the MFC [9, 24] was 128 µg/mL (≈ 248 µM). It also gave an MIC [9, 25] of 64 µg/mL (≈ 124 µM).
